Values quoted from earlier work in patent publication US20180146647A1, “MEDETOMIDINE FOR USE IN CONTROLLING PARASITIC CRUSTACEANS ON FISH” (I-Tech AB, priority 2015, published 2018).

What was measured:
[1] = test system: α2-adrenoceptor; settings: given to mammals and fish; Sinclair, 2003; Ruuskanen et al., 2005
[2] = test system: cyprid larvae; settings: medetomidine 10 nM; Mol Pharmacol 78:237-248, 2010
[3] = test system: algae; settings: target protein lacking within algae

In the case of `Cc1cccc(C(C)c2c[nH]cn2)c1C` (racemic) [Medetomidine, (±) 4-[1-(2,3-Dimethylphenyl)ethyl]-1H-imidazole], the “physiological effect in vertebrates” value [1] is listed as “sedation and locomotor inhibition”, the “kicking of the cyprid larvae” value [2] is listed as “more than 100 kicks per minute” and the “effect on algal growth” value [3] is listed as “no effect on algal growth”.
